Experimental data from ChEMBL document CHEMBL1201862, “PubChem BioAssay data set” (2004).
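96-well plates; 48 h exposure; 5 concentrations. Endpoints by linear interpolation between flanking doses. Not reached: highest tested concentration assigned. GI50 = concentration required for 50% inhibition of growth.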 The source made the active and inactive calls. Cut-off read from the data, not from the text of the source: active = GI50 up to about 1.1 µM and inactive = higher.

Legend:
Test in all cases: growth of human tumour cells (NCI), 48 h
NCI-H23 = system: NCI-H23
OVCAR-8 = system: OVCAR-8
UACC-257 = system: UACC-257
CCRF-CEM = system: CCRF-CEM
M14 = system: M14
BT-549 = system: BT-549
PC-3 = system: PC-3
SK-MEL-5 = system: SK-MEL-5
SW-620 = system: SW-620
SF-295 = system: SF-295
UO-31 = system: UO-31
HCT-15 = system: HCT-15
A498 = system: A498
OVCAR-4 = system: OVCAR-4
SF-268 = system: SF-268
HCT-116 = system: HCT-116
RPMI-8226 = system: RPMI-8226
HL-60 = system: HL-60
COLO 205 = system: COLO 205
HOP-92 = system: HOP-92
NCI-H522 = system: NCI-H522
MDA-N = system: MDA-N
LOX IMVI = system: LOX IMVI
SK-OV-3 = system: SK-OV-3
DU-145 = system: DU-145
RXF 393 = system: RXF 393
SR = system: SR
HOP-62 = system: HOP-62
MDA-MB-435 = system: MDA-MB-435
ACHN = system: ACHN
SN12C = system: SN12C
A549 = system: A549
EKVX = system: EKVX
UACC-62 = system: UACC-62
K562 = system: K562
T47D = system: T47D
NCI/ADR-RES = system: NCI/ADR-RES
HT-29 = system: HT-29
SF-539 = system: SF-539
HCC 2998 = system: HCC 2998
SK-MEL-2 = system: SK-MEL-2
MOLT-4 = system: MOLT-4
SNB-75 = system: SNB-75
SK-MEL-28 = system: SK-MEL-28
IGROV-1 = system: IGROV-1
U-251 = system: U-251
NCI-H226 = system: NCI-H226
SNB-19 = system: SNB-19
Hs-578T = system: Hs-578T
NCI-H460 = system: NCI-H460
OVCAR-5 = system: OVCAR-5
TK-10 = system: TK-10
MDA-MB-231 = system: MDA-MB-231
786-0 = system: 786-0
CAKI-1 = system: CAKI-1
KM12 = system: KM12
OVCAR-3 = system: OVCAR-3
MCF7 = system: MCF7
Malme-3M = system: Malme-3M

With `NCCCN(CCCCN(CCCN)CCCc1ccccc1)CCCc1ccccc1` the GI50 (NCI-H23) was 4.32 µM (inactive), the GI50 (OVCAR-8) was 8.71 µM (inactive) and the GI50 (UACC-257) was 1.79 µM (inactive). For the same compound, the GI50 (CCRF-CEM) was 2.49 µM (inactive), the GI50 (M14) was 1.76 µM (inactive) and the GI50 (BT-549) was 3.03 µM (inactive). For the same compound, the GI50 (PC-3) was 3.22 µM (inactive), the GI50 (SK-MEL-5) was 1.83 µM (inactive) and the GI50 (SW-620) was 2.86 µM (inactive). The GI50 (SF-295) was 1.69 µM (inactive), the GI50 (UO-31) was 2.19 µM (inactive) and the GI50 (HCT-15) was 1.96 µM. For the same compound, the GI50 (A498) was 13.1 µM (inactive), the GI50 (OVCAR-4) was 4.89 µM (inactive) and the GI50 (SF-268) was 3.07 µM (inactive). The GI50 (HCT-116) was 1.82 µM (inactive), the GI50 (RPMI-8226) was 2.43 µM (inactive) and the GI50 (HL-60) was 1.15 µM (inactive). For the same compound, the GI50 (COLO 205) was 1.56 µM (inactive), the GI50 (HOP-92) was 6.97 µM (inactive) and the GI50 (NCI-H522) was 2.09 µM (inactive). For the same compound, the GI50 (MDA-N) was 1.74 µM (inactive), the GI50 (LOX IMVI) was 2.36 µM (inactive) and the GI50 (SK-OV-3) was 4.16 µM (inactive). For the same compound, the GI50 (DU-145) was 8.11 µM (inactive), the GI50 (RXF 393) was 2.37 µM (inactive) and the GI50 (SR) was 2.31 µM (inactive). The GI50 (HOP-62) was 9.89 µM (inactive), the GI50 (MDA-MB-435) was 1.74 µM (inactive) and the GI50 (ACHN) was 2.68 µM (inactive). The GI50 (SN12C) was 3.9 µM (inactive), the GI50 (A549) was 3.23 µM (inactive) and the GI50 (EKVX) was 2.99 µM (inactive). For the same compound, the GI50 (UACC-62) was 1.74 µM (inactive), the GI50 (K562) was 1.77 µM (inactive) and the GI50 (T47D) was 6.84 µM (inactive). The GI50 (NCI/ADR-RES) was 20.1 µM (inactive), the GI50 (HT-29) was 1.85 µM (inactive) and the GI50 (SF-539) was 1.86 µM (inactive). The GI50 (HCC 2998) was 1.62 µM (inactive), the GI50 (SK-MEL-2) was 1.69 µM (inactive) and the GI50 (MOLT-4) was 2 µM (inactive). For the same compound, the GI50 (SNB-75) was 1.93 µM (inactive), the GI50 (SK-MEL-28) was 1.51 µM (inactive) and the GI50 (IGROV-1) was 2.65 µM (inactive). For the same compound, the GI50 (U-251) was 1.98 µM (inactive), the GI50 (NCI-H226) was 17.6 µM (inactive) and the GI50 (SNB-19) was 1.19 µM (inactive). The GI50 (Hs-578T) was 1.81 µM (inactive), the GI50 (NCI-H460) was 1.42 µM (inactive) and the GI50 (OVCAR-5) was 11 µM (inactive). The GI50 (TK-10) was 12.4 µM (inactive), the GI50 (MDA-MB-231) was 2.02 µM (inactive) and the GI50 (786-0) was 1.7 µM (inactive). The GI50 (CAKI-1) was 2.15 µM (inactive), the GI50 (KM12) was 2.55 µM (inactive) and the GI50 (OVCAR-3) was 1.73 µM (inactive). For the same compound, the GI50 (MCF7) was 1.96 µM (inactive).
`CCOC(=O)CCC(NC(=O)N1CCN(c2c(C)nc(C)nc2O)CC1)C(=O)OCC` (stereo unspecified) was tested, and the GI50 (Malme-3M) was > 100 µM (inactive), the GI50 (NCI-H23) was > 100 µM (inactive) and the GI50 (OVCAR-8) was > 100 µM (inactive). For the same compound, the GI50 (UACC-257) was > 100 µM (inactive), the GI50 (CCRF-CEM) was > 100 µM (inactive) and the GI50 (M14) was > 100 µM (inactive). For the same compound, the GI50 (BT-549) was > 100 µM (inactive), the GI50 (PC-3) was > 100 µM (inactive) and the GI50 (SW-620) was > 100 µM (inactive). For the same compound, the GI50 (SF-295) was > 100 µM (inactive), the GI50 (UO-31) was > 100 µM (inactive) and the GI50 (HCT-15) was > 100 µM. The GI50 (A498) was > 100 µM (inactive), the GI50 (OVCAR-4) was > 100 µM (inactive) and the GI50 (SF-268) was > 100 µM (inactive). The GI50 (HCT-116) was > 100 µM (inactive), the GI50 (RPMI-8226) was > 100 µM (inactive) and the GI50 (HL-60) was > 100 µM (inactive). For the same compound, the GI50 (COLO 205) was > 100 µM (inactive), the GI50 (HOP-92) was > 100 µM (inactive) and the GI50 (NCI-H522) was > 100 µM (inactive). For the same compound, the GI50 (MDA-N) was > 100 µM (inactive), the GI50 (LOX IMVI) was > 100 µM (inactive) and the GI50 (SK-OV-3) was > 100 µM (inactive). For the same compound, the GI50 (DU-145) was > 100 µM (inactive), the GI50 (RXF 393) was > 100 µM (inactive) and the GI50 (SR) was > 100 µM (inactive). For the same compound, the GI50 (HOP-62) was > 100 µM (inactive), the GI50 (MDA-MB-435) was > 100 µM (inactive) and the GI50 (ACHN) was > 100 µM (inactive). For the same compound, the GI50 (SN12C) was > 100 µM (inactive), the GI50 (A549) was > 100 µM (inactive) and the GI50 (EKVX) was > 100 µM (inactive). The GI50 (UACC-62) was > 100 µM (inactive), the GI50 (K562) was > 100 µM (inactive) and the GI50 (T47D) was > 100 µM (inactive). For the same compound, the GI50 (NCI/ADR-RES) was > 100 µM (inactive), the GI50 (HT-29) was > 100 µM (inactive) and the GI50 (SF-539) was > 100 µM (inactive). The GI50 (HCC 2998) was > 100 µM (inactive), the GI50 (MOLT-4) was > 100 µM (inactive) and the GI50 (SNB-75) was < 0.01 µM (active). For the same compound, the GI50 (SK-MEL-28) was > 100 µM (inactive), the GI50 (IGROV-1) was > 100 µM (inactive) and the GI50 (U-251) was > 100 µM (inactive). For the same compound, the GI50 (NCI-H226) was > 100 µM (inactive), the GI50 (SNB-19) was > 100 µM (inactive) and the GI50 (Hs-578T) was > 100 µM (inactive). The GI50 (NCI-H460) was > 100 µM (inactive), the GI50 (OVCAR-5) was > 100 µM (inactive) and the GI50 (TK-10) was > 100 µM (inactive). For the same compound, the GI50 (MDA-MB-231) was > 100 µM (inactive), the GI50 (786-0) was > 100 µM (inactive) and the GI50 (CAKI-1) was > 100 µM (inactive). The GI50 (KM12) was > 100 µM (inactive), the GI50 (OVCAR-3) was > 100 µM (inactive) and the GI50 (MCF7) was > 100 µM (inactive).
With `COC(=O)c1cc(C#N)[nH]c1-c1ccsc1` the GI50 (Malme-3M) was > 100 µM (inactive), the GI50 (NCI-H23) was > 100 µM (inactive) and the GI50 (OVCAR-8) was > 100 µM (inactive). The GI50 (UACC-257) was 54.3 µM (inactive), the GI50 (CCRF-CEM) was 76.2 µM (inactive) and the GI50 (M14) was > 100 µM (inactive). The GI50 (BT-549) was 58.7 µM (inactive), the GI50 (PC-3) was > 100 µM (inactive) and the GI50 (SK-MEL-5) was > 100 µM (inactive). The GI50 (SW-620) was > 100 µM (inactive), the GI50 (SF-295) was > 100 µM (inactive) and the GI50 (UO-31) was 46.3 µM (inactive). The GI50 (HCT-15) was 70.1 µM, the GI50 (A498) was 95.5 µM (inactive) and the GI50 (OVCAR-4) was > 100 µM (inactive). For the same compound, the GI50 (SF-268) was > 100 µM (inactive), the GI50 (HCT-116) was > 100 µM (inactive) and the GI50 (RPMI-8226) was 22.5 µM (inactive). For the same compound, the GI50 (HL-60) was 18.2 µM (inactive), the GI50 (COLO 205) was > 100 µM (inactive) and the GI50 (HOP-92) was > 100 µM (inactive). The GI50 (NCI-H522) was 87.7 µM (inactive), the GI50 (MDA-N) was > 100 µM (inactive) and the GI50 (LOX IMVI) was > 100 µM (inactive). For the same compound, the GI50 (SK-OV-3) was > 100 µM (inactive), the GI50 (DU-145) was > 100 µM (inactive) and the GI50 (RXF 393) was 72.4 µM (inactive). For the same compound, the GI50 (SR) was 29.9 µM (inactive), the GI50 (HOP-62) was > 100 µM (inactive) and the GI50 (MDA-MB-435) was > 100 µM (inactive). The GI50 (ACHN) was 85.7 µM (inactive), the GI50 (SN12C) was > 100 µM (inactive) and the GI50 (A549) was > 100 µM (inactive). For the same compound, the GI50 (EKVX) was 74.8 µM (inactive), the GI50 (UACC-62) was > 100 µM (inactive) and the GI50 (K562) was 53.1 µM (inactive). The GI50 (T47D) was 25.1 µM (inactive), the GI50 (NCI/ADR-RES) was > 100 µM (inactive) and the GI50 (HT-29) was > 100 µM (inactive). The GI50 (HCC 2998) was > 100 µM (inactive), the GI50 (SK-MEL-2) was > 100 µM (inactive) and the GI50 (MOLT-4) was 8.63 µM (inactive). For the same compound, the GI50 (SNB-75) was > 100 µM (inactive), the GI50 (SK-MEL-28) was > 100 µM (inactive) and the GI50 (IGROV-1) was > 100 µM (inactive). For the same compound, the GI50 (U-251) was > 100 µM (inactive), the GI50 (NCI-H226) was > 100 µM (inactive) and the GI50 (Hs-578T) was > 100 µM (inactive). The GI50 (OVCAR-5) was > 100 µM (inactive), the GI50 (TK-10) was > 100 µM (inactive) and the GI50 (MDA-MB-231) was > 100 µM (inactive). For the same compound, the GI50 (786-0) was > 100 µM (inactive), the GI50 (CAKI-1) was 51.2 µM (inactive) and the GI50 (KM12) was > 100 µM (inactive). For the same compound, the GI50 (OVCAR-3) was > 100 µM (inactive) and the GI50 (MCF7) was 10 µM (inactive).
